These are literature values, as cited in article PMC3065533 (Journal of nuclear medicine : official publication, Society …, 2011).

For this data set, the target named is melanocortin-1 (MC1) receptor (Mus musculus, UniProt Q01727). Conditions: stated in methods without reference.
Sequence of melanocortin-1 (MC1) receptor (Q01727 whole entry): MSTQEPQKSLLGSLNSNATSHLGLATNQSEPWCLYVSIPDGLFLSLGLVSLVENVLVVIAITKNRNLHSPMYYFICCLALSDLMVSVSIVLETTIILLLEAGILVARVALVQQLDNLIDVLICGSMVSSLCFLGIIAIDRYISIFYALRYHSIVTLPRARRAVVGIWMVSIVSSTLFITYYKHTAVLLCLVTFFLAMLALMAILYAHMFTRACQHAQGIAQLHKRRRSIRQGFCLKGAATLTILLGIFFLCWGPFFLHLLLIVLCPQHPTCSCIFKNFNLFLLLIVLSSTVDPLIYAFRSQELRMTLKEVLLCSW

With NDP-MSH, the “MC1 receptor binding affinity (in words)” value is “picomolar”.
